Reference: patent US12134620B2 (ARAXES PHARMA LLC, priority 2018, dated 2024)

The molecules below were run against T1, KRAS G12C 1-169, his-tagged protein, GDP-loaded (Homo sapiens, UniProt P01116, G12C) (assay: Biochemical assay: covalent modification of KRAS G12C, analysed by mass spectrometry (RapidFire/TOF or Q-Exactive)). Settings: Modification activity, modification percentage from MS peak intensities.
T1 construct: KRAS G12C 1-169, his-tagged protein, GDP-loaded; His tag
Format: binding
Method: Test compounds are prepared as 10 mM stock solutions in DMSO (Fisher cat. #BP-231-100). KRAS G12C 1-169, his-tagged protein, GDP-loaded is diluted to 2 μM or 0.5 μM in buffer (20 mM Hepes, 150 mM NaCl, 1 mM MgCl2). Compounds are tested for activity as follows:
Compounds are diluted to 50× final test concentration in DMSO in 96-well storage plates. Compound stock solutions are vortexed before use and observed carefully for any sign of precipitation. Dilutions are as follow: • For 32 μM final compound concentration, compounds are diluted to 1600 μM (3 μL 10 mM compound stock+15.75 μL DMSO and mixed well by pipetting. • For 8 μM final compound concentration, compounds are diluted to 400 μM (2 μL 10 mM compound stock+48 μL DMSO) and mixed well by pipetting. 49 μL of the stock protein solution is added to each well of a 96-well PCR plate (Fisher cat #1423027). 1 μl of the diluted 50× compounds are added to appropriate wells in the PCR plate using 12-channel pipettor. Reactions are mixed carefully and thoroughly by pipetting up/down with a 200 μL multi-channel pipettor. The plate is sealed well with aluminum plate seal, and protein and compound are allowed to react for a desired amount of time. 5 μL of 2% formic acid (Fisher cat #A117) in de-ionized H2O is then added to each well followed by mixing with a pipette to quench the reaction. The plate is then resealed with aluminum seal and stored frozen on dry ice until analyzed as described below.
The above described assays are analyzed by mass spectrometry according to one of the following two procedures:
The MS instrument is set to positive polarity, 2 GHz resolution, and low mass (1700) mode and allowed to equilibrate for 30 minutes. The instrument is then calibrated, switched to acquisition mode and the appropriate method loaded.
After another 30 minute equilibration time, a blank batch (i.e., buffer) is run to ensure equipment is operating properly. The samples are thawed at 37° C. for 10 minutes, briefly centrifuged, and transfer to the bench top. Wells A1 and H12 are spiked with 1 μL 500 μM internal standard peptide, and the plates centrifuged at 2000×g for 5 minutes. The method is then run and masses of each individual well recorded.
The masses (for which integration data is desired) for each well are pasted into the platemap and exported from the analysis. Masses for the internal standards are exported as well. The data at 50 ppm is extracted for the +19 charge state, and identity of well A1 is assigned using the internal standard spike and integrated. Peak data is exported as a TOF list and the above steps are repeated individually, for the +20, +21, +22, +23, +24, and +25 charge states.
The masses and peak intensities of KRAS G12C protein species are measured using a Dionex RSLCnano system (Thermo Scientific) connected to a Q Exactive Plus mass spectrometer (Thermo Scientific).
20 μL of sample is each loaded onto a Aeris™ 3.6 μm WIDEPORE C4 200 Å, LC Column 50×2.1 mm column maintained at 40° C. at a flow rate of 600 μL/min with 80% Solvent A (0.1% formic acid in H2O) and 20% Solvent B (0.1% formic acid in acetonitrile). The liquid chromatography conditions are 20% solvent B for 1 minute, 20% to 60% solvent B for 1.5 minutes, 60% to 90% solvent for 0.5 minute, 90% solvent B for 0.2 minute, 90% to 20% solvent B for 0.2 minute, and then equilibrated for 1.6 minute before the following sample injection. The flow rate is maintained at 600 μL/min throughout the sample analysis.
The mass spectrometer is operated in profile mode at a resolution of 17500, 5 microscans, using 50 msec max injection time and an AGC target of 1×10^6, and a full mass range from 800-1850 m/z is recorded. The intact protein mode is applied for optimal ion transfer and maximum sensitivity. The ionization method is electrospray ionization, which used a spray voltage of 4 kV, sheath gas flow set to 50 AU, auxiliary gas flow set to 10 AU and sweep gas flow set to 1 AU. […]
For `C=CC(=O)N1CC2(CCN(c3nc(OCc4ccccn4)nc(-c4c(F)ccc5cnn(C)c45)c3C#N)C2)C1` [Compound I-123, 4-(2-acryloyl-2,6-diazaspiro[3.4]octan-6-yl)-6-(6-fluoro-1-methyl-1H-indazol-7-yl)-2-(pyridin-2-ylmethoxy)pyrimidine-5-carbonitrile], the Binding % was “+ (+ indicates binding activity greater than 0% and up to 50%)”.
`C=CC(=O)N1CC2(CCN(c3nc(N4CCCC(N(C)C)C4)nc(-c4c(C)ccc5[nH]ncc45)c3C#N)C2)C1` (stereo not shown) [Compound I-110, 4-(2-acryloyl-2,6-diazaspiro[3.4]octan-6-yl)-2-(3-(dimethylamino)piperi-din-1-yl)-6-(5-methyl-1H-indazol-4-yl)pyrimidine-5-carbonitrile] was tested, and the Binding % was “+++ (+++ indicates binding activity greater than 85%)”.
With `C=CC(=O)N1CC2(CCN(c3ncnc(-c4c(C)ccc5[nH]nc(C6CC6)c45)c3C#N)C2)C1` [Compound I-238, 4-(2-acryloyl-2,6-diazaspiro[3.4]octan-6-yl)-6-(3-cyclopropyl-5-methyl-1H-indazol-4-yl)pyrimidine-5-carbonitrile] the Binding % was “+ (+ indicates binding activity greater than 0% and up to 50%)”.
`C=CC(=O)N1CC2(CCN(c3nc(N4CCOC(c5ccccc5)C4)nc(-c4c(C)ccc5[nH]ncc45)c3C#N)C2)C1` (stereo not shown) [Compound I-109, 4-(2-acryloyl-2,6-diazaspiro[3.4]octan-6-yl)-6-(5-methyl-1H-indazol-4-yl)-2-(2-phenylmorpholino)py-rimidine-5-carbonitrile] was tested, and the Binding % was “++ (++ indicates binding activity from 50 to 85%)”.
In the case of `C=CC(=O)N1CC2(CCN(c3nc(OCc4cc(F)cc(F)c4)nc(-c4c(C)ccc5cnn(C)c45)c3C#N)C2)C1` [Compound I-165], the Binding % is reported as “++ (++ indicates binding activity from 50 to 85%)”.
With `C=CC(=O)N1CC2(CCN(c3nc(C4CCOCC4)nc(-c4c(C)ccc5[nH]ncc45)c3C#N)C2)C1` [Compound I-196, 4-(2-acryloyl-2,6-diazaspiro[3.4]octan-6-yl)-6-(5-methyl-1H-indazol-4-yl)-2-(tetrahydro-2H-pyran-4-yl)pyrimidine-5-carbonitrile] the Binding % was “++ (++ indicates binding activity from 50 to 85%)”.
With `C=CC(=O)N1CC2(CCN(c3nc(OCCCN(C)C)nc(-c4c(C)ccc5[nH]ncc45)c3C#N)CC2)C1` [Compound I-86, 4-(2-acryloyl-2,7-diazaspiro[3.5]nonan-7-yl)-2-(3-(dimethylamino)pro-poxy)-6-(5-methyl-1H-indazol-4-yl)pyrimidine-5-carbonitrile] the Binding % was “++ (++ indicates binding activity from 50 to 85%)”.
In the case of `C=CC(=O)N1CC2(CCN(c3ncnc(-c4c(C)ccc5[nH]ncc45)c3C)C2)C1` [Compound I-257, 1-(6-(5-methyl-6-(5-methyl-1H-indazol-4-yl)pyrimidin-4-yl)-2,6-diazaspiro[3.4]octan-2-yl)prop-2-en-1-one], the Binding % is reported as “+ (+ indicates binding activity greater than 0% and up to 50%)”.
For `C=CC(=O)N1CC2(CCN(c3nc(N4CCC(N5CCN(C)C6(CC6)C5)CC4)nc(-c4c(C)ccc5[nH]ncc45)c3C#N)C2)C1` [Compound I-194, 4-(2-acryloyl-2,6-diazaspiro[3.4]octan-6-yl)-6-(5-methyl-1H-indazol-4-yl)-2-(4-(4-methyl-4,7-diazaspiro[2.5]octan-7-yl)piperidin-1-yl)pyrimidine-5-carbonitrile], the Binding % was “+++ (+++ indicates binding activity greater than 85%)”.
In the case of `C=CC(=O)N1CC2(CCN(c3nc(OCCc4ncccn4)nc(-c4c(C)ccc5[nH]ncc45)c3C#N)C2)C1` [Compound I-14, 4-(2-acryloyl-2,6-diazaspiro[3.4]octan-6-yl)-6-(5-methyl-1H-indazol-4-yl)-2-(2-(pyrimidin-2-yl)ethoxy)pyrimidine-5-carbonitrile], the Binding % is reported as “++ (++ indicates binding activity from 50 to 85%)”.
For `C=CC(=O)N1CC2(CCN(c3nc(CCN4CCCC4)nc(-c4c(C)ccc5[nH]ncc45)c3C#N)C2)C1` [Compound I-183, 4-(2-acryloyl-2,6-diazaspiro[3.4]octan-6-yl)-6-(5-methyl-1H-indazol-4-yl)-2-(2-(pyrrolidin-1-yl)ethyl)pyrimidine-5-carbonitrile], the Binding % was “+ (+ indicates binding activity greater than 0% and up to 50%)”.
`C=CC(=O)N1CC2(CCN(c3nc(N4CC5CN(C)CC5C4)nc(-c4c(C)ccc5[nH]ncc45)c3C#N)C2)C1` (stereo not shown) [Compound I-39, 4-(2-acryloyl-2,6-diazaspiro[3.4]octan-6-yl)-6-(5-methyl-1H-indazol-4-yl)-2-(5-methylhexahydropyr-rolo[3,4-c]pyrrol-2(1H)-yl)pyrimidine-5-carbonitrile] was tested, and the Binding % was “+ (+ indicates binding activity greater than 0% and up to 50%)”.
For `C=CC(=O)N1CC2(CCN(c3nc(OC[C@@H]4CCCN4C)nc(-c4ccnc(N)n4)c3C#N)C2)C1` [Compound I-167, (S)-6-(2-acryloyl-2,6-diazaspiro[3.4]octan-6-yl)-2′-amino-2-((1-methylpyrrolidin-2-yl)methoxy)-[4,4′-bipyrimidine]-5-carbonitrile], the Binding % was “+ (+ indicates binding activity greater than 0% and up to 50%)”.
`C=CC(=O)N1CC2(CCN(c3ncnc(-c4c(C)ccc5[nH]ncc45)c3CN(C)C)C2)C1` [Compound I-258, 1-(6-(5-((dimethylamino)meth-yl)-6-(5-methyl-1H-indazol-4-yl)pyrimidin-4-yl)-2,6-diazaspiro[3.4]octan-2-yl)prop-2-en-1-one] was tested, and the Binding % was “+ (+ indicates binding activity greater than 0% and up to 50%)”.
With `C=CC(=O)N1CC2(CCN(c3nc(OC4CCN(C)CC4)nc(-c4c(C)ccc5[nH]ncc45)c3C#N)C2)C1` [Compound I-43, 4-(2-acryloyl-2,6-diazaspiro[3.4]octan-6-yl)-6-(5-methyl-1H-indazol-4-yl)-2-((1-methylpiperidin-4-yl)oxy)pyrimidine-5-carbonitrile] the Binding % was “+++ (+++ indicates binding activity greater than 85%)”.
`C=CC(=O)N1CC2(CCN(c3nc(N4CCN(C)C(=O)C4)nc(-c4c(C)ccc5[nH]ncc45)c3C#N)C2)C1` [Compound I-28, 4-(2-acryloyl-2,6-diazaspiro[3.4]octan-6-yl)-6-(5-methyl-1H-indazol-4-yl)-2-(4-methyl-3-oxopiperazin-1-yl)pyrimidine-5-carbonitrile] was tested, and the Binding % was “+++ (+++ indicates binding activity greater than 85%)”.
In the case of `C=CC(=O)N1CC2(CCN(c3nc(OCc4ccc(N5CCN(C)CC5)cn4)nc(-c4c(C)ccc5[nH]ncc45)c3C#N)C2)C1` [Compound I-181, 4-(2-acryloyl-2,6-diazaspiro[3.4]octan-6-yl)-6-(5-methyl-1H-indazol-4-yl)-2-((5-(4-methylpiperazin-1-yl)pyridin-2-yl)methoxy)pyrimidine-5-carbonitrile], the Binding % is reported as “++ (++ indicates binding activity from 50 to 85%)”.
In the case of `C=CC(=O)N1CC2(CCN(c3ncnc(-c4c(C)ccc5[nH]ncc45)c3C(F)(F)F)C2)C1` [Compound I-260, 1-(6-(6-(5-methyl-1H-indazol-4-yl)-5-(trifluoromethyl)pyri-midin-4-yl)-2,6-diazaspiro[3.4]octan-2-yl)prop-2-en-1-one], the Binding % is reported as “+ (+ indicates binding activity greater than 0% and up to 50%)”.
With `C=CC(=O)N1CC2(CCN(c3nc(-c4c(C)ccc5[nH]ncc45)c(C#N)c(N4CC(N(C)C)C4)n3)C2)C1` [Compound I-147, 2-(2-acryloyl-2,6-diazaspiro[3.4]octan-6-yl)-4-(3-(dimethylamino)azeti-din-1-yl)-6-(5-methyl-1H-indazol-4-yl)pyrimidine-5-carbonitrile] the Binding % was “+ (+ indicates binding activity greater than 0% and up to 50%)”.
